The supplement of paper PMC10307832

How the values were obtained:
Test in all cases: relative viability (nuclei count vs DMSO), 5 days (fraction); higher = more cells survive
NCI-H650 = system: NCI-H650
Outline: (§1)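 Lung cancer cell lines in 1536-well plates were dosed by pin tool the day after seeding, either with one drug alone or with a fixed anchor-drug dose plus five library-drug doses (not always all listed) in √10 steps. After 5 days, cells were fixed and their nuclei stained in one step (final 0.05% Triton X-100, 1% formaldehyde, 1 ug/ml Hoechst), then counted on 4× images. Relative viability is the nuclei count in treated wells divided by that in vehicle wells. Values are medians of duplicate plates.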

NCI-H1915 = system: NCI-H1915
Outline: as §1

201T = system: 201T
Outline: as §1

LCLC-97TM1 = system: LCLC-97TM1
Outline: as §1

NCI-H3122 = system: NCI-H3122
Outline: as §1

NCI-H1944 = system: NCI-H1944
Outline: as §1

NCI-H1563 = system: NCI-H1563
Outline: as §1

NCI-H838 = system: NCI-H838
Outline: as §1

SW 1573 = system: SW 1573
Outline: as §1

NCI-H1651 = system: NCI-H1651
Outline: as §1

NCI-H2347 = system: NCI-H2347
Outline: as §1

BEN = system: BEN
Outline: as §1

HOP-62 = system: HOP-62
Outline: as §1

NCI-H1395 = system: NCI-H1395
Outline: as §1

HCC-78 = system: HCC-78
Outline: as §1

LOU-NH91 = system: LOU-NH91
Outline: as §1

NCI-H2126 = system: NCI-H2126
Outline: as §1

NCI-H1793 = system: NCI-H1793
Outline: as §1

SK-LU-1 = system: SK-LU-1
Outline: as §1

NCI-H1355 = system: NCI-H1355
Outline: as §1

CAL-12T = system: CAL-12T
Outline: as §1

NCI-H322M = system: NCI-H322M
Outline: as §1

Cc1csc(=NC2CCCCC2)n1/N=C/c1ccc(O)c(O)c1O [MIM1] + CS(=O)(=O)CCNCc1ccc(-c2ccc3ncnc(Nc4ccc(OCc5cccc(F)c5)c(Cl)c4)c3c2)o1 [Lapatinib] (partner 2 µM)
relative viability (NCI-H650; first compound 0.2 µM): 0.976
relative viability (NCI-H650; first compound 0.6325 µM): 0.737
relative viability (NCI-H650; first compound 2 µM): 0.897
relative viability (NCI-H650; first compound 6.325 µM): 0.791
relative viability (NCI-H650; first compound 20 µM): 0.235
relative viability (NCI-H1915; first compound 0.2 µM): 0.996
relative viability (NCI-H1915; first compound 0.6325 µM): 0.659
relative viability (NCI-H1915; first compound 2 µM): 0.82
relative viability (NCI-H1915; first compound 6.325 µM): 0.536
relative viability (NCI-H1915; first compound 20 µM): 0.357
relative viability (201T; first compound 0.2 µM): 1.08
relative viability (201T; first compound 0.6325 µM): 1.05
relative viability (201T; first compound 2 µM): 1.01
relative viability (201T; first compound 6.325 µM): 0.49
relative viability (201T; first compound 20 µM): 0.617
relative viability (LCLC-97TM1; first compound 0.2 µM): 1.04
relative viability (LCLC-97TM1; first compound 0.6325 µM): 0.526
relative viability (LCLC-97TM1; first compound 2 µM): 0.539
relative viability (LCLC-97TM1; first compound 6.325 µM): 0.353
relative viability (LCLC-97TM1; first compound 20 µM): 0.128
relative viability (NCI-H3122; first compound 0.2 µM): 1.02
relative viability (NCI-H3122; first compound 0.6325 µM): 1.07
relative viability (NCI-H3122; first compound 2 µM): 1.01
relative viability (NCI-H3122; first compound 6.325 µM): 0.859
relative viability (NCI-H3122; first compound 20 µM): 0.304
relative viability (NCI-H1944; first compound 0.2 µM): 0.889
relative viability (NCI-H1944; first compound 0.6325 µM): 0.805
relative viability (NCI-H1944; first compound 2 µM): 0.491
relative viability (NCI-H1944; first compound 6.325 µM): 0.535
relative viability (NCI-H1944; first compound 20 µM): 0.445
relative viability (NCI-H1563; first compound 0.2 µM): 0.903
relative viability (NCI-H1563; first compound 0.6325 µM): 1.04
relative viability (NCI-H1563; first compound 2 µM): 0.853
relative viability (NCI-H1563; first compound 6.325 µM): 0.825
relative viability (NCI-H1563; first compound 20 µM): 0.462
relative viability (NCI-H838; first compound 0.2 µM): 0.941
relative viability (NCI-H838; first compound 0.6325 µM): 0.885
relative viability (NCI-H838; first compound 2 µM): 0.815
relative viability (NCI-H838; first compound 6.325 µM): 0.672
relative viability (NCI-H838; first compound 20 µM): 0.183
relative viability (SW 1573; first compound 0.2 µM): 1.07
relative viability (SW 1573; first compound 0.6325 µM): 1.15
relative viability (SW 1573; first compound 2 µM): 1.08
relative viability (SW 1573; first compound 6.325 µM): 0.993
relative viability (SW 1573; first compound 20 µM): 0.83
relative viability (NCI-H1651; first compound 0.2 µM): 0.883
relative viability (NCI-H1651; first compound 0.6325 µM): 0.854
relative viability (NCI-H1651; first compound 2 µM): 0.95
relative viability (NCI-H1651; first compound 6.325 µM): 0.655
relative viability (NCI-H1651; first compound 20 µM): 0.274
relative viability (NCI-H2347; first compound 0.2 µM): 0.941
relative viability (NCI-H2347; first compound 0.6325 µM): 1.07
relative viability (NCI-H2347; first compound 2 µM): 0.999
relative viability (NCI-H2347; first compound 6.325 µM): 0.59
relative viability (NCI-H2347; first compound 20 µM): 0.399
relative viability (BEN; first compound 0.2 µM): 0.732
relative viability (BEN; first compound 0.6325 µM): 0.674
relative viability (BEN; first compound 2 µM): 0.843
relative viability (BEN; first compound 6.325 µM): 0.622
relative viability (BEN; first compound 20 µM): 0.193
relative viability (HOP-62; first compound 0.2 µM): 0.929
relative viability (HOP-62; first compound 0.6325 µM): 0.864
relative viability (HOP-62; first compound 2 µM): 0.414
relative viability (HOP-62; first compound 6.325 µM): 0.843
relative viability (HOP-62; first compound 20 µM): 0.158
relative viability (NCI-H1395; first compound 0.2 µM): 1.14
relative viability (NCI-H1395; first compound 0.6325 µM): 1.1
relative viability (NCI-H1395; first compound 2 µM): 0.862
relative viability (NCI-H1395; first compound 6.325 µM): 0.711
relative viability (NCI-H1395; first compound 20 µM): 0.515
relative viability (HCC-78; first compound 0.2 µM): 0.834
relative viability (HCC-78; first compound 0.6325 µM): 0.964
relative viability (HCC-78; first compound 2 µM): 0.637
relative viability (HCC-78; first compound 6.325 µM): 0.492
relative viability (HCC-78; first compound 20 µM): 0.336
relative viability (LOU-NH91; first compound 0.2 µM): 0.744
relative viability (LOU-NH91; first compound 0.6325 µM): 0.8
relative viability (LOU-NH91; first compound 2 µM): 0.645
relative viability (LOU-NH91; first compound 6.325 µM): 0.625
relative viability (LOU-NH91; first compound 20 µM): 0.362
relative viability (NCI-H2126; first compound 0.2 µM): 0.763
relative viability (NCI-H2126; first compound 0.6325 µM): 0.72
relative viability (NCI-H2126; first compound 2 µM): 0.77
relative viability (NCI-H2126; first compound 6.325 µM): 0.679
relative viability (NCI-H2126; first compound 20 µM): 0.339
relative viability (NCI-H1793; first compound 0.2 µM): 0.768
relative viability (NCI-H1793; first compound 0.6325 µM): 0.623
relative viability (NCI-H1793; first compound 2 µM): 0.645
relative viability (NCI-H1793; first compound 6.325 µM): 0.669
relative viability (NCI-H1793; first compound 20 µM): 0.459
relative viability (SK-LU-1; first compound 0.2 µM): 0.825
relative viability (SK-LU-1; first compound 0.6325 µM): 0.839
relative viability (SK-LU-1; first compound 2 µM): 0.791
relative viability (SK-LU-1; first compound 6.325 µM): 0.72
relative viability (SK-LU-1; first compound 20 µM): 0.325
relative viability (NCI-H1355; first compound 0.2 µM): 0.988
relative viability (NCI-H1355; first compound 0.6325 µM): 0.902
relative viability (NCI-H1355; first compound 2 µM): 0.967
relative viability (NCI-H1355; first compound 6.325 µM): 0.738
relative viability (NCI-H1355; first compound 20 µM): 0.483
relative viability (CAL-12T; first compound 0.2 µM): 0.615
relative viability (CAL-12T; first compound 2 µM): 0.754
relative viability (CAL-12T; first compound 6.325 µM): 0.578
relative viability (CAL-12T; first compound 20 µM): 0.22
relative viability (NCI-H322M; first compound 0.2 µM): 0.653
relative viability (NCI-H322M; first compound 0.6325 µM): 0.531
relative viability (NCI-H322M; first compound 2 µM): 0.532
relative viability (NCI-H322M; first compound 6.325 µM): 0.577
relative viability (NCI-H322M; first compound 20 µM): 0.801
